Source: ChEMBL document CHEMBL1201862, “PubChem BioAssay data set” (2004)
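96-well plates; 48 h exposure; 5 concentrations. Endpoints by linear interpolation between flanking doses. Not reached: highest tested concentration assigned. GI50 is the concentration that inhibits growth by half.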 The source made the active and inactive calls. No stated cut-off is given here; in the data, active = GI50 up to about 1.1 µM and inactive = higher.

Experiments:
Assay in all cases: DTP human tumour cell line panel, 48 h
[1] = tested on: SNB-78
[2] = tested on: XF498
[3] = tested on: ACHN
[4] = tested on: A549
[5] = tested on: SF-295
[6] = tested on: RPMI-8226
[7] = tested on: M14
[8] = tested on: SF-268
[9] = tested on: COLO 205
[10] = tested on: 786-0
[11] = tested on: SR
[12] = tested on: SK-MEL-28
[13] = tested on: SK-MEL-5
[14] = tested on: DMS-114
[15] = tested on: UO-31
[16] = tested on: LXFL 529
[17] = tested on: HOP-62
[18] = tested on: KM-20L2
[19] = tested on: MOLT-4
[20] = tested on: HOP-18
[21] = tested on: M19-MEL
[22] = tested on: NCI-H522
[23] = tested on: NCI-H460
[24] = tested on: CCRF-CEM
[25] = tested on: SNB-75
[26] = tested on: HCT-15
[27] = tested on: SNB-19
[28] = tested on: HOP-92
[29] = tested on: HL-60
[30] = tested on: OVCAR-4
[31] = tested on: KM12
[32] = tested on: OVCAR-8
[33] = tested on: Malme-3M
[34] = tested on: A498
[35] = tested on: NCI-H226
[36] = tested on: HCT-116
[37] = tested on: HCC 2998
[38] = tested on: TK-10
[39] = tested on: HT-29
[40] = tested on: K562
[41] = tested on: SW-620
[42] = tested on: OVCAR-3
[43] = tested on: IGROV-1
[44] = tested on: UACC-62
[45] = tested on: DLD-1
[46] = tested on: SK-MEL-2
[47] = tested on: EKVX
[48] = tested on: LOX IMVI
[49] = tested on: CAKI-1
[50] = tested on: U-251
[51] = tested on: SK-OV-3
[52] = tested on: OVCAR-5
[53] = tested on: UACC-257
[54] = tested on: DMS-273
[55] = tested on: NCI-H23
[56] = tested on: SN12C

Measured: GI50

CCC(O)C1Cc2c(C)cc3c(c2O1)C(=O)c1ccccc1C3=O (stereo unspecified)
inactive: [1] 33.2 µM | [2] 14.3 µM | [3] 27.8 µM | [4] 36 µM | [5] 29.6 µM | [6] 27.9 µM | [7] 40.1 µM | [8] 25.1 µM | [9] 16.1 µM | [10] 25.8 µM | [11] 33.5 µM | [12] 49.2 µM | [13] 44.7 µM | [14] 25.4 µM | [15] 21 µM | [16] 28.8 µM | [17] 35.9 µM | [18] 35.2 µM | [19] 27.4 µM | [20] 17.2 µM | [21] 41.7 µM | [22] 21.1 µM | [23] 27.3 µM | [24] 31.3 µM | [25] 31.8 µM | [27] 36.3 µM | [28] 29.4 µM | [29] 17.9 µM | [30] 33.3 µM | [31] 25.8 µM | [32] 32.4 µM | [33] 34.6 µM | [34] 18 µM | [35] 46.8 µM | [36] 40.6 µM | [37] 29.6 µM | [38] 85.3 µM | [39] 39.4 µM | [40] 29.8 µM | [41] 52 µM | [42] 29.4 µM | [43] 31.5 µM | [44] 28.8 µM | [45] 42 µM | [46] 44.4 µM | [47] 62.4 µM | [48] 27.7 µM | [49] 24.5 µM | [50] 26.2 µM | [51] 22.6 µM | [52] 72.3 µM | [53] 69 µM | [54] 28.7 µM | [55] 33.3 µM | [56] 35.3 µM
19.6 µM: [26]
